Source: US9156816B2 (priority 2010, dated 2015)

Key:
Pythium ultimum = assay: Cucumber damping-off (PU) control test; type: in vivo; conditions: Globisporangium ultimum, 168 h, soil irrigated with 30 ml emulsion at active ingredient concentration of 100 ppm, ratio of healthy seedlings on day 7 after planting vs untreated group
Experimental: 40 ml of sterile soil were placed in plastic cups followed by leveling the surface of the soil. The soil was then irrigated with 30 ml of the aforementioned emulsion of Preparation Example 2 at an active ingredient concentration of 100 ppm. Following irrigation, cucumbers (variety: Sagami Hanjiro) were planted in the soil and covered with 20 ml of contaminated soil (containing Pythium ultimum) from above. The cups were then placed in plastic bags and allowed to stand undisturbed for 3 days in a constant temperature room at 25° C. (dark location […]). Next, the plants were removed from the bags and held in a constant temperature room at 25° C. using a light-dark cycle of 12 hours. On day 7 after planting, the ratios of healthy seedlings were compared between an untreated group and treated group to calculate control effects (control values).

Pythium aphanidermatum = assay: Antimicrobial test (mycelia growth inhibition); type: cell-based; conditions: compound concentration of 1 ppm, PSY medium, 25° C., days 3 to 7 of culturing, read-out: mycelia growth inhibition rate
Experimental: The compound according to the present invention was dissolved in dimethylsulfoxide and diluted to double the prescribed concentration in a 96-well microplate using PSY medium to obtain a drug solution. On the other hand, a diluted dimethylsulfoxide solution was prepared using PSY medium for use as an untreated group.
A suspension of liquid-cultured test microorganisms (Pythium aphanidermatum) was mixed with an equal volume of the drug solution and cultured in a dark location at 25° C. Mycelia growth was observed on days 3 to 7 of culturing to determine mycelia growth inhibition rates.

[1] = system: tomato late blight pathogen (Phytophthora infestans); assay: whole plant or invertebrate; type: in vivo; conditions: 96 h, read-out: control value

SMILES | pest or weed control at 100 ppm (Pythium ultimum) | inhibition at 1 ppm (Pythium aphanidermatum) | melting point | pest or weed control at 100 µg/mL [1]
COCCC(C)(C)C(=O)Nc1cccc(CO/N=C(/c2ccccc2)c2nnnn2C)n1 [b-10] | ≥ 50% | ≥ 50% | 86 to 87 °C | 
COC(OC)C(=O)Nc1cccc(CO/N=C(/c2ccccc2)c2nnnn2C)n1 [a-3] | ≥ 50% | ≥ 50% | 88 to 90 °C | ≥ 70%
COC(C)(C)C(=O)Nc1cccc(CO/N=C(/c2ccccc2)c2nnnn2C)n1 [b-6] |  | ≥ 50% | 104 to 105 °C | 
CCOC(OC(=O)Nc1cccc(CO/N=C(/c2ccccc2)c2nnnn2C)n1)C(F)(F)F (stereo not drawn) [d-1] |  | ≥ 50% | 123 to 124 °C | ≥ 70%
Cn1nnnc1/C(=N\OCc1cccc(NC(=O)CC2OCCCO2)n1)c1ccccc1 [a-14] | ≥ 50% | ≥ 50% | 107 to 108 °C | ≥ 70%
COCC(C)C(=O)Nc1cccc(CO/N=C(/c2ccccc2)c2nnnn2C)n1 (centres unmarked) [b-3] | ≥ 50% | ≥ 50% | 66 to 68 °C | 
Cn1nnnc1/C(=N\OCc1cccc(NC(=O)C(C)(C)O)n1)c1ccccc1 [b-7] |  | ≥ 50% | 144 to 146 °C | 
CCOC(C)(OCC)C(=O)Nc1cccc(CO/N=C(/c2ccccc2)c2nnnn2C)n1.Cl [a-33] |  | ≥ 50% | 70 to 73 °C | 
Cn1nnnc1/C(=N\OCc1cccc(NC(=O)C2SCCCS2)n1)c1ccccc1 [a-23] | ≥ 50% | ≥ 50% |  | ≥ 70%
COC(CC(C)(C)OC(=O)Nc1cccc(CO/N=C(/c2ccccc2)c2nnnn2C)n1)OC [c-9] | ≥ 50% | ≥ 50% |  | ≥ 70%
Cn1nnnc1/C(=N\OCc1cccc(NC(=O)C2(C)OCCCCO2)n1)c1ccccc1 [a-25] | ≥ 50% | ≥ 50% |  | ≥ 70%
COCC(C)(C)C(=O)Nc1cccc(CO/N=C(/c2ccccc2)c2nnnn2C)n1 [b-8] | ≥ 50% | ≥ 50% | 60 to 61 °C | 
Cn1nnnc1/C(=N\OCc1cccc(NC(=O)C2OCCO2)n1)c1ccccc1 [a-4] | ≥ 50% | ≥ 50% |  | ≥ 70%
CCOCCCOC(=O)Nc1cccc(CO/N=C(/c2ccccc2)c2nnnn2C)n1 [d-15] | ≥ 50% | ≥ 50% |  | ≥ 70%
COCCC(C)OC(=O)Nc1cccc(CO/N=C(/c2ccccc2)c2nnnn2C)n1 (stereo not drawn) [d-14] | ≥ 50% | ≥ 50% |  | ≥ 70%
Cn1nnnc1/C(=N\OCc1cccc(NC(=O)OC2CCOC2)n1)c1ccccc1 (stereo not drawn) [d-4] |  |  | 76 to 78 °C | ≥ 70%
CCOC(CC(=O)Nc1cccc(CO/N=C(/c2ccccc2)c2nnnn2C)n1)OCC [a-6] | ≥ 50% | ≥ 50% |  | ≥ 70%
CCOC(SCC)C(=O)Nc1cccc(CO/N=C(/c2ccccc2)c2nnnn2C)n1 (centres unmarked) [a-26] | ≥ 50% | ≥ 50% |  | ≥ 70%
Cn1nnnc1/C(=N\OCc1cccc(NC(=O)OC2CCOCC2)n1)c1ccccc1 [d-3] |  | ≥ 50% | 72 to 73 °C | ≥ 70%
Cn1nnnc1/C(=N\OCc1cccc(NC(=O)OCCC2OCC(C)(C)CO2)n1)c1ccccc1 [c-1] | ≥ 50% | ≥ 50% |  | ≥ 70%
Cn1nnnc1/C(=N\OCc1cccc(NC(=O)C2(C)OCCOCCO2)n1)c1ccccc1 [a-28] | ≥ 50% | ≥ 50% |  | ≥ 70%
CCOCCC(C)OC(=O)Nc1cccc(CO/N=C(/c2ccccc2)c2nnnn2C)n1 (stereo not drawn) [d-13] | ≥ 50% | ≥ 50% |  | ≥ 70%
Cn1nnnc1/C(=N\OCc1cccc(NC(=O)OCC2COCO2)n1)c1ccccc1 (centres unmarked) [c-4] | ≥ 50% | ≥ 50% | 104 to 105 °C | ≥ 70%
